Consider nine molecules from PubChem BioAssay (NCI).

Some test systems named below: EKVX NSCLC; HT29 colon; IGROV1 ovarian; K-562 leukemia; M14 melanoma; SK-MEL-28 melanoma; SN12C renal; SW-620 colon; U251 CNS; UO-31 renal.
Common to all, as to experiment: NCI anticancer screen, dose series, 48 h

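Dose response: 5 concentrations. Exposure: 48 h. Format: 96-well plates. Endpoint: linear interpolation; highest concentration if not reached. Here, GI50 denotes the concentration required for 50% inhibition of growth. TGI: total growth inhibition.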

Turning to `CO/N=C(\C)c1ccc(Nc2cc(-c3ccccc3)nc3c(O)cccc23)cc1`, the GI50 in the assay on EKVX NSCLC was 15.9 µM; in the assay with HT29 colon, 21.9 µM; in the assay on IGROV1 ovarian it was 13.5 µM; with K-562 leukemia it was 11.6 µM; in the assay on M14 melanoma, 14.6 µM; with SK-MEL-28 melanoma it was 25.5 µM. The GI50 with SN12C renal is 16 µM; in the assay with SW-620 colon, 13.6 µM; in the assay with U251 CNS, 13.3 µM; in the assay on UO-31 renal, 19.6 µM. Also, the TGI was determined as 41.7 µM in the assay on EKVX NSCLC; 49.5 µM in the assay on HT29 colon; 45.2 µM in the assay with IGROV1 ovarian; 60.4 µM in the assay on K-562 leukemia; 29.6 µM in the assay on M14 melanoma; 84.8 µM in the assay with SK-MEL-28 melanoma. Further, the TGI was 30.6 µM with SN12C renal, 40 µM with SW-620 colon, 27.2 µM with U251 CNS and 42.5 µM with UO-31 renal.
Regarding `C[C@H]1[C@H](C)CC[C@]2(C(=O)O)CC[C@]3(C)C(=CC[C@@H]4[C@@]5(C)C/C(=C/c6cccnc6)[C@H](O)C(C)(C)[C@@H]5CC[C@]43C)[C@H]12`, the GI50 was 13.3 µM in the assay on EKVX NSCLC; 14.4 µM in the assay with HT29 colon; 26.4 µM in the assay on IGROV1 ovarian; 6.79 µM in the assay on K-562 leukemia; 17.7 µM in the assay with M14 melanoma; 13.7 µM in the assay on SK-MEL-28 melanoma. In addition, the GI50 with SN12C renal is 18.1 µM; in the assay with SW-620 colon it was 20.9 µM; with U251 CNS, 10.9 µM; in the assay with UO-31 renal, 12.5 µM. The TGI was 87.6 µM in the assay with EKVX NSCLC; 33.9 µM in the assay with HT29 colon; over 100 µM with IGROV1 ovarian; over 100 µM in the assay on K-562 leukemia; 49 µM in the assay with M14 melanoma; 34.6 µM in the assay with SK-MEL-28 melanoma. The TGI with SN12C renal was 97.3 µM; in the assay with SW-620 colon it was over 100 µM; in the assay with U251 CNS it was 27.8 µM; with UO-31 renal it was 26.4 µM.
`Cc1cc(=O)oc2cc3c(cc12)Oc1ccccc1O3`: the TGI was over 10 µM in the assay on EKVX NSCLC; over 100 µM in the assay on HT29 colon; over 100 µM in the assay on IGROV1 ovarian; over 10 µM in the assay with K-562 leukemia; over 100 µM in the assay on M14 melanoma; over 100 µM in the assay on SK-MEL-28 melanoma. Further, the TGI in the assay with SN12C renal, in the assay on SW-620 colon, with U251 CNS and in the assay with UO-31 renal was over 100 µM each time.
Take `O=C(CN1CCN(c2ccccc2)CC1)N1CCc2c([nH]c3ccccc23)C1c1cccnc1` (stereo not given): the TGI with EKVX NSCLC, in the assay with HT29 colon, in the assay on IGROV1 ovarian, with K-562 leukemia, in the assay on M14 melanoma and with SK-MEL-28 melanoma was over 100 µM throughout. The TGI was over 100 µM in the assay with SN12C renal, over 100 µM in the assay with SW-620 colon, 42.2 µM in the assay on U251 CNS and over 100 µM in the assay on UO-31 renal.
On to `C=C1C(=O)O[C@H]2[C@H]1CC/C(COC(=O)N1CCC[C@H]1C(=O)Nc1ccc(OC)c(C(N)=O)c1O)=C\CC[C@@]1(C)O[C@@H]21`, for which the GI50 in the assay on EKVX NSCLC was 4 µM; in the assay on HT29 colon, 3.24 µM; in the assay with IGROV1 ovarian, 2.82 µM; in the assay with K-562 leukemia it was 2.43 µM; in the assay with M14 melanoma it was 1.89 µM; with SK-MEL-28 melanoma it was 2.87 µM. Moreover, the GI50 in the assay with SN12C renal was 2.96 µM; with SW-620 colon, 1.64 µM; in the assay on U251 CNS, 6.76 µM; in the assay on UO-31 renal, 2.11 µM. For the same molecule, the TGI is 32.9 µM with EKVX NSCLC; 11.1 µM in the assay with HT29 colon; 9.13 µM with IGROV1 ovarian; 10.2 µM in the assay with K-562 leukemia; 4.19 µM in the assay on M14 melanoma; 10.2 µM with SK-MEL-28 melanoma. The TGI was 10.3 µM with SN12C renal, 4.01 µM in the assay with SW-620 colon, 20.9 µM with U251 CNS and 8.97 µM in the assay with UO-31 renal.
`Fc1cccc(COc2ccc(Nc3ncnc4cc(-c5ccc[nH]5)sc34)cc2Cl)c1`: the GI50 in the assay with EKVX NSCLC is 0.323 µM; in the assay with HT29 colon it was 7.47 µM; in the assay on IGROV1 ovarian, 0.406 µM; in the assay on K-562 leukemia it was 10.7 µM; with M14 melanoma it was 8.32 µM; with SK-MEL-28 melanoma it was 7.96 µM. In addition, the GI50 in the assay with SN12C renal is 1.42 µM; with SW-620 colon, 8.56 µM; in the assay with U251 CNS it was 3.51 µM; with UO-31 renal it was 0.245 µM. The TGI in the assay with EKVX NSCLC is 3.75 µM; in the assay on HT29 colon it was over 20.6 µM; with IGROV1 ovarian it was 11.7 µM; in the assay with K-562 leukemia it was over 25 µM; with M14 melanoma, over 23.4 µM; in the assay on SK-MEL-28 melanoma it was over 25 µM. Also, the TGI in the assay with SN12C renal is over 25 µM; with SW-620 colon, over 25 µM; with U251 CNS it was 17.5 µM; in the assay on UO-31 renal it was 2.52 µM.
For the molecule `COc1ccc(-c2cn(-c3ccccc3)c(-c3ccccc3)n2)cc1OC`, the GI50 with EKVX NSCLC is 12.1 µM; with HT29 colon, 4.5 µM; with IGROV1 ovarian it was 2.72 µM; with K-562 leukemia, 3.21 µM; in the assay with M14 melanoma, 5.69 µM; in the assay on SK-MEL-28 melanoma, 12 µM. Moreover, the GI50 with SN12C renal was 5.2 µM; in the assay with SW-620 colon, 3.69 µM; in the assay on U251 CNS, 2.46 µM; with UO-31 renal, 2.7 µM. The TGI in the assay with EKVX NSCLC is 29.1 µM; with HT29 colon, over 100 µM; in the assay with IGROV1 ovarian, 9.3 µM; in the assay on K-562 leukemia, over 100 µM; in the assay with M14 melanoma it was 20 µM; in the assay on SK-MEL-28 melanoma, 26.2 µM. Also, the TGI stood at 17.8 µM in the assay on SN12C renal, 18.5 µM in the assay on SW-620 colon, 10.6 µM in the assay with U251 CNS and 14.4 µM with UO-31 renal.
Turning to `COc1cccc(C2c3cc4c(cc3OC(O)(CO)C2C(=O)O)OCO4)c1` (stereo not given) (tested in a mixture with another compound), the TGI was over 100 µM in the assay with EKVX NSCLC; over 100 µM with HT29 colon; over 100 µM in the assay on IGROV1 ovarian; over 100 µM in the assay on K-562 leukemia; over 100 µM in the assay on M14 melanoma; 79.8 µM in the assay on SK-MEL-28 melanoma. Also, the TGI is over 100 µM in the assay on SN12C renal, over 100 µM in the assay with SW-620 colon, 62.2 µM with U251 CNS and over 100 µM in the assay with UO-31 renal.
Consider `N#CC(C(=O)C(=O)NCCCNC(=O)C(=O)C(C#N)c1ccccc1)c1ccccc1` (stereo not given), for which the TGI with EKVX NSCLC, with HT29 colon, in the assay with IGROV1 ovarian, in the assay with K-562 leukemia, in the assay on M14 melanoma and with SK-MEL-28 melanoma was over 100 µM in each case. In addition, the TGI in the assay with SN12C renal, with SW-620 colon, in the assay on U251 CNS and in the assay with UO-31 renal was over 100 µM throughout.
